Source: patent publication US9181265B2, “Substituted 2,3-dihydro-1H-benzo[a]pyrano[2,3-c]phenazines as anti-angiogenic and anti-cancer agents” (UNIVERSITE CATHOLIQUE DE LOUVAIN, priority 2010, dated 2015)
Read-outs that look alike come from different tables or passages of the source. Marks after values point to notes of the source that are not given here.

Columns and labels:
[1] = test system: Human umbilical vein endothelial cells (HUVEC); assay: MTT test of overall cell growth, endothelial cells, normoxic or hypoxic conditions; assay type: cell-based; settings: for Selectivity: if u.t.d., ratio of activity at 100 μM
Description: (§1) MTT tests were performed in order to rapidly, i.e. within 3 days, measure the effect of compounds of this invention on the overall cell growth. The test measured the number of metabolically active living cells that were able to transform the yellow product 3-(4,5-dimethylthiazol-2-yl)-2,5-diphenyl tetrazolium bromide (herein referred as MTT) into the blue product formazan dye by mitochondrial reduction. The amount of formazan obtained at the end of the experiment, measured by means of a spectrophotometer (Plate Reader Victor X4 Microplate reader (Perkin Elmer), is directly proportional to the number of living cells. Optical density determination thus enabled a quantitative measurement of the effect of the investigated compounds under control conditions (normoxia) as compared to the hypoxic conditions (0.1 or 1% O2) and/or untreated conditions.
(§2) Human umbilical vein endothelial cells (HUVEC) and six human cancer cell lines were used in the MTT tests. These cancer cell lines cover five histological cancer types including cervix (SiHa), breast (MCF-7 and MDA-MB231), prostate (PC3), glioma (U373), and colorectal (LoVo) cancers.
(§3) To perform the assay, cells were allowed to grow in 96-well microplates with a flat bottom following addition of an amount of 100 μl of cell suspension per well with 4,500 cells/well. Each cell line was seeded in its appropriate culture medium. HUVEC were cultured in a specific endothelial cell growth medium (ECACC, Sigma); SiHa cells in Glutamax-containing DMEM with 4.5 g/1 glucose (Invitrogen) supplemented with 10% Foetal Bovine Serum (PAA) and 1% penicillin+streptomycin mix (Invitrogen); MCF-7, MDA-MB-231, PC3, and LoVo cells in Glutamax-containing RPMI supplemented with 10% Foetal Bovine Serum (PAA) and 1% penicillin+streptomycin mix (Invitrogen) and U373 cells in Glutamax-containing DMEM (Invitrogen) with 5% Foetal Bovine Serum (PAA) and 1% penicillin+streptomycin mix (Invitrogen).
(§4) The detailed experimental procedure was the following: after a 24-hour period of incubation at 37° C., the culture medium was replaced by 100 μl of fresh medium in which the tested compound was previously dissolved, at the following concentrations: 10^−8 M, 5.10^−8, 10^−7, 5.10^−7, 10^−6, 5.10^−6, 10^−5, 5.10^−5 and 10^−[…]. Each experiment was performed in sestuplicates (6 times).
(§5) Cells were then incubated under normoxia in a Binder incubator (the O2 level corresponding to the concentration in the ambient air), or in a Ruskin hypoxia workstation under either 0.1% O2 (v/v) or 1% O2 (v/v). Under both conditions, the atmosphere was humidified and the CO2 concentration was fixed at 5 vol. %.
(§6) After 72 hours of incubation at 37° C. under normoxic or hypoxic conditions, with or without the compound to be tested, the medium was replaced by 100 μl of HBSS (without phenol red) containing MTT at a concentration of 0.5 or 1 mg/ml. The micro-wells were subsequently incubated during 3 hours and a half at 37° C. and centrifuged at 1300 rpm during 10 minutes. Medium was removed and formazan crystals formed were dissolved in 100 μl DMSO. The micro-wells were shaken for 5 minutes and read on a spectrophotometer at wavelengths of 570 nm (maximal formazan absorbance).
(§7) For each experimental condition, the mean optical density was calculated, allowing the determination of the percentage of living cells in comparison to the control.

[2] = test system: MDA-MB-231; assay: MTT test of overall cell growth, MDA-MB-231 breast cancer cells, normoxia or hypoxia; assay type: cell-based, human; settings: for Selectivity: MDA-MB-231, IC50 (normoxia)/IC50 (hypoxia 1% O2), if u.t.d., ratio of activity at 100 μM
Description: as §1, §2, §3, §4, §5, §6, §7

[3] = test system: MCF-7; assay: MTT test of overall cell growth, MCF-7 breast cancer cells, normoxia or hypoxia; assay type: cell-based, human; settings: for Selectivity: MCF-7, IC50 (normoxia)/IC50 (hypoxia 1% O2), if u.t.d., ratio of activity at 100 μM
Description: as §1, §2, §3, §4, §5, §6, §7

[4] = test system: PC3; assay: MTT test of overall cell growth, PC3 prostate cancer cells, normoxia or hypoxia; assay type: cell-based, human; settings: for Selectivity: PC3, IC50 (normoxia)/IC50 (hypoxia 1% O2), if u.t.d., ratio of activity at 100 μM
Description: as §1, §2, §3, §4, §5, §6, §7

[5] = test system: LoVo; assay: MTT test of overall cell growth, LoVo colorectal cancer cells, normoxia or hypoxia; assay type: cell-based, human; settings: for Selectivity: IC50 (normoxia)/IC50 (hypoxia 1% O2), if u.t.d., ratio of activity at 100 μM
Description: as §1, §2, §3, §4, §5, §6, §7

[6] = test system: siHa; assay: MTT test of overall cell growth, SiHa cervix cancer cells, normoxia or hypoxia; assay type: cell-based, human; settings: for Selectivity: IC50 (normoxia)/IC50 (hypoxia 1% O2), if u.t.d., ratio of activity at 100 μM
Description: as §1, §2, §3, §4, §5, §6, §7

[7] = test system: U373; assay: MTT test of overall cell growth, U373 glioma cells, normoxia or hypoxia; assay type: cell-based, human; settings: for Selectivity: U373, IC50 (normoxia)/IC50 (hypoxia 1% O2), if u.t.d., ratio of activity at 100 μM
Description: as §1, §2, §3, §4, §5, §6, §7

[8] = Homo sapiens, 72 h, hypoxia 0.1% O2, 72 h, read-out: IC50 (μM) Hypoxia 0.1%
[9] = Homo sapiens, 72 h, hypoxia 1% O2, 72 h, read-out: IC50 (μM) Hypoxia 1%
[10] = Homo sapiens, 72 h, normoxia, 72 h, series compared with hypoxia 1%, read-out: IC50 (μM) Normoxia
[11] = IC50 (normoxia)/IC50 (hypoxia 0.1%)
[12] = IC50 (normoxia)/IC50 (hypoxia 1%)
[13] = Homo sapiens, MDA-MB-231, hypoxia 1% O2, 72 h, read-out: IC50 (μM) Hypoxia 1% O2
[14] = Homo sapiens, hypoxia 1% O2, 72 h, read-out: IC50 (μM) Hypoxia 1% O2
[15] = Homo sapiens, normoxia, 72 h, read-out: IC50 (μM) Normoxia
[16] = Homo sapiens, U373 MG, U373, hypoxia 1% O2, 72 h, read-out: IC50 (μM) Hypoxia 1% O2
[17] = Homo sapiens, 72 h, normoxia, 72 h, series compared with hypoxia 0.1%, read-out: IC50 (μM) Normoxia
[18] = Homo sapiens, MCF7, MCF-7, hypoxia 1% O2, 72 h, read-out: IC50 (μM) Hypoxia 1% O2
[19] = hypoxia 1% O2, 72 h, read-out: IC50 (μM) Hypoxia 1% O2
[20] = normoxia, 72 h, read-out: IC50 (μM) Normoxia

SMILES: COC(=O)c1ccc2nc3c4c(c5ccccc5c3nc2c1)OC(C)(C)[C@H]1CC[C@H](C)C[C@H]41 [Compound 11]
- IC50 [1, 8]: 65.8 µM
- IC50 [1, 9]: 10.9 µM
- IC50 [1, 10]: 149 µM
- Selectivity [1, 11]: >3.4^b
- Selectivity [1, 12]: 14
- IC50 (μM) Normoxia ([1]; normoxia, 72 h, series compared with hypoxia 0.1%): u.t.d.
- IC50 [2, 13]: 158 µM
- IC50 (μM) Normoxia ([2]; MDA-MB-231, normoxia, 72 h): u.t.d.
- Selectivity [2]: >1.44^b
- IC50 (μM) Hypoxia 1% O2 ([3]; MCF-7, hypoxia 1% O2, 72 h): u.t.d.
- IC50 (μM) Normoxia ([3]; MCF-7, normoxia, 72 h): u.t.d.
- IC50 (μM) Hypoxia 1% O2 ([4]; PC3, hypoxia 1% O2, 72 h): u.t.d.
- IC50 (μM) Normoxia ([4]; PC3, normoxia, 72 h): u.t.d.
- IC50 [5, 14]: 152 µM
- IC50 [5, 15]: 216 µM
- Selectivity [5]: 1.42
- IC50 [6, 14]: 134 µM
- Selectivity [6]: >1.69^b
- IC50 (μM) Normoxia ([6]; normoxia, 72 h): u.t.d.
- IC50 [7, 16]: 141 µM
- IC50 (μM) Normoxia ([7]; U373, normoxia, 72 h): u.t.d.
- Selectivity [7]: >1.61^b

SMILES: C[C@H]1CC[C@H]2[C@H](C1)c1c(c3ccccc3c3nc4ccc(C(=O)N5CCOCC5)cc4nc13)OC2(C)C (racemic) [Compound 12′]
- IC50 [1, 8]: 0.04 µM
- IC50 [1, 9]: 0.14 µM
- IC50 [1, 17]: 4.24 µM
- IC50 [1, 10]: 4.14 µM
- Selectivity [1, 11]: 105
- Selectivity [1, 12]: 29
- IC50 [2, 13]: 1.31 µM
- IC50 ([2]; Homo sapiens, MDA-MB-231, normoxia, 72 h, read-out: IC50 (μM) Normoxia): 44.4 µM
- Selectivity [2]: 33.85
- IC50 [3, 18]: 1.45 µM
- IC50 ([3]; Homo sapiens, MCF7, MCF-7, normoxia, 72 h, read-out: IC50 (μM) Normoxia): 11.3 µM
- Selectivity [3]: 7.78
- IC50 ([4]; Homo sapiens, PC-3, PC3, hypoxia 1% O2, 72 h, read-out: IC50 (μM) Hypoxia 1% O2): 1.41 µM
- IC50 ([4]; Homo sapiens, PC-3, PC3, normoxia, 72 h, read-out: IC50 (μM) Normoxia): 15.3 µM
- Selectivity [4]: 10.86
- IC50 [5, 14]: 1.21 µM
- IC50 [5, 15]: 10.6 µM
- Selectivity [5]: 8.75
- IC50 [6, 14]: 1.17 µM
- IC50 [6, 15]: 72.6 µM
- Selectivity [6]: 62.07
- IC50 [7, 16]: 0.61 µM
- IC50 ([7]; Homo sapiens, U373 MG, U373, normoxia, 72 h, read-out: IC50 (μM) Normoxia): 9.08 µM
- Selectivity [7]: 15.00

SMILES: C[C@H]1CC[C@H]2[C@H](C1)c1c(c3ccccc3c3nc4cc(C(=O)N[C@@H](CO)Cc5ccccc5)ccc4nc13)OC2(C)C [Compound 17]
- Selectivity [1, 11]: 134
- Selectivity [1, 12]: 8
- IC50 ([1]; hypoxia 0.1% O2, 72 h, read-out: IC50 (μM) Hypoxia 0.1%): 0.05 µM
- IC50 ([1]; hypoxia 1% O2, 72 h, read-out: IC50 (μM) Hypoxia 1%): 0.63 µM
- IC50 ([1]; normoxia, 72 h, series compared with hypoxia 0.1%, read-out: IC50 (μM) Normoxia): 6.25 µM
- IC50 ([1]; normoxia, 72 h, series compared with hypoxia 1%, read-out: IC50 (μM) Normoxia): 5.18 µM
- IC50 ([2]; MDA-MB-231, hypoxia 1% O2, 72 h, read-out: IC50 (μM) Hypoxia 1% O2): 11.4 µM
- IC50 ([2]; MDA-MB-231, normoxia, 72 h, read-out: IC50 (μM) Normoxia): 13.4 µM
- Selectivity [2]: 1.17
- IC50 ([3]; MCF-7, hypoxia 1% O2, 72 h, read-out: IC50 (μM) Hypoxia 1% O2): 11.1 µM
- IC50 ([3]; MCF-7, normoxia, 72 h, read-out: IC50 (μM) Normoxia): 12.2 µM
- Selectivity [3]: 1.10
- IC50 ([4]; PC3, hypoxia 1% O2, 72 h, read-out: IC50 (μM) Hypoxia 1% O2): 11.1 µM
- IC50 ([4]; PC3, normoxia, 72 h, read-out: IC50 (μM) Normoxia): 10.4 µM
- Selectivity [4]: 0.94
- Selectivity [5]: 1.04
- IC50 [5, 19]: 9.47 µM
- IC50 [5, 20]: 9.83 µM
- Selectivity [6]: 7.12
- IC50 [6, 19]: 10.5 µM
- IC50 [6, 20]: 75 µM
- IC50 ([7]; U373, hypoxia 1% O2, 72 h, read-out: IC50 (μM) Hypoxia 1% O2): 1.23 µM
- IC50 ([7]; U373, normoxia, 72 h, read-out: IC50 (μM) Normoxia): 6.97 µM
- Selectivity [7]: 5.65

SMILES: COc1ccc(CNC(=O)c2ccc3nc4c(nc3c2)c2c(c3ccccc34)OC(C)(C)[C@H]3CC[C@H](C)C[C@H]23)c(OC)c1 [Compound 16′]
- IC50 [1, 8]: 0.21 µM
- IC50 [1, 9]: 7.96 µM
- IC50 [1, 17]: 16.7 µM
- IC50 [1, 10]: 120 µM
- Selectivity [1, 11]: 80
- Selectivity [1, 12]: 15
- IC50 [2, 13]: 126 µM
- IC50 (μM) Normoxia ([2]; MDA-MB-231, normoxia, 72 h): u.t.d.
- Selectivity [2]: >1.38^b
- IC50 [3, 18]: 91.2 µM
- IC50 (μM) Normoxia ([3]; MCF-7, normoxia, 72 h): u.t.d.
- Selectivity [3]: >1.91^b
- IC50 (μM) Hypoxia 1% O2 ([4]; PC3, hypoxia 1% O2, 72 h): u.t.d.
- IC50 (μM) Normoxia ([4]; PC3, normoxia, 72 h): u.t.d.
- IC50 [5, 14]: 154 µM
- IC50 [5, 15]: 116 µM
- Selectivity [5]: 0.76
- IC50 [6, 14]: 92.1 µM
- Selectivity [6]: >1.89^b
- IC50 (μM) Normoxia ([6]; normoxia, 72 h): u.t.d.
- IC50 [7, 16]: 113 µM
- IC50 (μM) Normoxia ([7]; U373, normoxia, 72 h): u.t.d.
- Selectivity [7]: >1.54^b
